Several values for one entry are separate records, joined by “and”; a condition that tells them apart may be missing. Equal values may be shown once. Read-outs that look alike come from different tables or passages of the source. Where no end group is shown, it is not given here. [ ]: non-standard residue; d: D form. Bip = N[C@@H](Cc1ccc(-c2ccccc2)cc1)C(=O)O; NMeF = CN[C@@H](Cc1ccccc1)C(=O)O; Ahp(2) = CCCCC[C@H](N)C(=O)O
What was measured:
Daudi cells [1] = experiment: Ternary binding assay: recruitment of PE-labeled human IgG1k to Daudi cells (flow cytometry, MFI); type: cell-based; details: for MFI, recruitment of PE-labeled human IgG1k to Daudi cells: duplicate columns
Experimental: Various technologies can be utilized to assess and/or characterize recruitment of antibodies to target cells, e.g., cancer cells. One such assay is a ternary binding assay. An exemplary protocol is described herein. Compounds were diluted in DMSO (MP 191418) to 1000× the starting concentration used in the assay into a 96 well polypropylene plate (Corning 3357). They were then serially diluted in ½ log increments to generate 8-12 concentrations in DMSO (assay dependent). These DMSO stocks were then step diluted 1/100 into PBS (VWR Cat. #20012043). Step diluted compound range was then added into the polypropylene assay plate 1/10 the volume of the assay volume. Daudi (ATCC CCL-213), a non-adherent cell line, were counted and centrifuged and resuspended at a concentration of 100,000 cells per 90 ul in Flow buffer: 1% BSA (American Bio AB01088-00100); 0.5 mM EDTA (VWR 45001-122); PBS (VWR Cat. #20012043) with 11.1 ug/mL human IgG1k Phycoerythrin labeled (SouthernBiotech #0151K-09 PE). The cells were then added into the polypropylene plate with the step diluted compounds and incubated at 37° C. for 30 min. At the end of the incubation, the cells were centrifuged and washed 2× with How buffer containing 0.5% Tween 20 (BP337-500). Samples were analyzed on a BD FacsCelesta. Mean fluorescence was analyzed using Graphpad Prism and curves were fit using log(inhibitor) vs. response—Variable slope (four parameters).

Daudi cells [2] = experiment: KILR ADCC killing assay: KILR-transfected Daudi cells with purified NK cells (% dead cells); type: cell-based; details: for % dead cells, KILR ADCC killing assay: KILR Daudi cells with purified NK cells, duplicate columns
Description: In some embodiments, CD38-ABT ARMs bind to target cells and antibodies, e.g., human antibodies. In some embodiments, such ternary structures present antibodies to effector cells such as NK cell and bind to, e.g., CD16a receptors. […] Daudi cells were transfected with KILR reporter construct (DiscoverX #97-0002). An attenuated lentivirus was designed to deliver a Moloney Murine Leukemia Virus (MMLV) engineered to drive expression of a housekeeping gene tagged with Enhanced ProLabel (ePL) a beta-Galactosidase (beta-gal) reporter fragment. This construct was designed to remain inside cells. Death leads to the release of the KILR reporter protein into the medium. Detection reagent (DiscoverX #97-0001L) contained the complementing beta-gal reporter fragment enzyme acceptor (EA). The two components combined to generate a chemiluminescent signal.

[3] = test system: Effector cells (ADCC reporter cells) with Daudi cells; experiment: ADCC reporter assay: Daudi cells, IVIG and ADCC reporter effector cells (luciferase, RLU); type: cell-based; details: IVIG; for Luminescence, ADCC reporter assay: 18 h, duplicate columns
Experimental: Daudi (ATCC CCL-213) cells were resuspended in Opti-MEM (Thermo Fisher Scientific #31985070), counted (Life Technologies Countless II cell counter) and plated (5,000 cells in 25 uL/well; Corning plates: 3917). Compounds w diluted in DMSO (MP 191418) to 1000× the starting concentration used in the assay into a 96 well polypropylene plate (Corning 3357). They were then serially diluted in ½ log increments to generate 8 concentrations in DMSO (assay dependent). These DMSO stocks were then step diluted 1/250 into Opti-MEM. Step diluted compound range was then added into the polypropylene assay plate 25 uL/well. The human antibody solution (Grifols IVIG Fleogogamma #61953-0005-2) was diluted to 40 ug/mL and added 25 uL/well. Effector cells (ADCC reporter cells—Promega kit: G7018) were added 37,500 in 25 uL/well. The assay was then incubated 18 h at 37° C. Following the induction period, the plate was equilibrated to 25° C. followed the addition of the luciferase substrate (75 uL/well, 1 vial in 10 mL of Bio-Glo assay buffer, Promega kit: G7018). The luminescence was measured (Biotek Synergy H1 microplate reader).

CD38 [4] = molecular target: T1, CD38 (human, UniProt P28907 43-300, limits assumed); experiment: ELISA; larger values represent binding
T1 construct: also called cluster of differentiation 38; cyclic ADP ribose hydrolase

CD38 [5] = molecular target: T1, CD38; experiment: ELISA; larger values represent binding; remark: listed apart in the source

CCCCC[C@@H]1NC(=O)[C@H](CCCNC(=N)N)NC(=O)[C@H](C)NC(=O)CSC[C@@H](C(=O)NCCOCCOCCC(=O)NCCOCCOCCC(=O)N[C@@H](CC(=O)O)C(=O)N[C@H]2CSSC[C@@H](C(=O)N[C@H](C(=O)O)[C@@H](C)O)NC(=O)[C@H](Cc3c[nH]c4ccccc34)NC(=O)[C@H](C(C)C)NC(=O)[C@H](CC(C)C)NC(=O)[C@H](CCC(=O)O)NC(=O)CNC(=O)[C@H](CC(C)C)NC(=O)[C@H](Cc3c[nH]cn3)NC(=O)[C@H](Cc3c[nH]c4ccccc34)NC(=O)[C@H](C)NC2=O)NC(=O)[C@H](CC(=O)O)NC(=O)[C@H](CCCCC)NC(=O)[C@H](Cc2ccc(-c3ccccc3)cc2)NC(=O)[C@H](CC(C)C)NC(=O)[C@H](C(C)C)NC(=O)CNC(=O)[C@H](CC(=O)O)NC(=O)[C@H](Cc2c[nH]cn2)NC(=O)[C@H](Cc2ccc(O)cc2)NC1=O [I-34]
MFI, recruitment of PE-labeled human IgG1k to Daudi cells (Daudi cells [1]; compound 3 nM): 2094 and 1853
MFI, recruitment of PE-labeled human IgG1k to Daudi cells (Daudi cells [1]; compound 10 nM): 11368 and 6266
MFI, recruitment of PE-labeled human IgG1k to Daudi cells (Daudi cells [1]; compound 30 nM): 15113 and 15626
MFI, recruitment of PE-labeled human IgG1k to Daudi cells (Daudi cells [1]; compound 100 nM): 30043 and 19748
MFI, recruitment of PE-labeled human IgG1k to Daudi cells (Daudi cells [1]; compound 300 nM): 24939 and 24944
MFI, recruitment of PE-labeled human IgG1k to Daudi cells (Daudi cells [1]; compound 1000 nM): 27313 and 25699
MFI, recruitment of PE-labeled human IgG1k to Daudi cells (Daudi cells [1]; compound 3000 nM): 19464 and 23695
% dead cells, KILR ADCC killing assay (Daudi cells [2]; compound 1 nM): 13.9% and 15.8%
% dead cells, KILR ADCC killing assay (Daudi cells [2]; compound 3 nM): 13.6% and 13.4%
% dead cells, KILR ADCC killing assay (Daudi cells [2]; compound 10 nM): 14.9% and 14.5%
% dead cells, KILR ADCC killing assay (Daudi cells [2]; compound 30 nM): 17.8% and 16.4%
% dead cells, KILR ADCC killing assay (Daudi cells [2]; compound 100 nM): 19.7% and 16.9%
% dead cells, KILR ADCC killing assay (Daudi cells [2]; compound 300 nM): 18.9% and 18.8%
% dead cells, KILR ADCC killing assay (Daudi cells [2]; compound 1000 nM): 15.3% and 15.9%
% dead cells, KILR ADCC killing assay (Daudi cells [2]; compound 3000 nM): 14.2% and 13.5%
EC50 ([3]; ADCC reporter assay): 6.7 nM
Luminescence, ADCC reporter assay ([3]; compound 1 nM): 4355 RLU and 4667 RLU
Luminescence, ADCC reporter assay ([3]; compound 3 nM): 5459 RLU and 5627 RLU
Luminescence, ADCC reporter assay ([3]; compound 10 nM): 13353 RLU and 13815 RLU
Luminescence, ADCC reporter assay ([3]; compound 30 nM): 16833 RLU and 17160 RLU
Luminescence, ADCC reporter assay ([3]; compound 100 nM): 19999 RLU and 21759 RLU
Luminescence, ADCC reporter assay ([3]; compound 300 nM): 19948 RLU and 20759 RLU
Luminescence, ADCC reporter assay ([3]; compound 1000 nM): 12953 RLU and 13376 RLU
Luminescence, ADCC reporter assay ([3]; compound 3000 nM): 8601 RLU and 9733 RLU

I-38: "A mixture of compound 6 ... compound 2 ... DIEA ... to get compound I-38 (Q1 ...) and compound I-38 (Q2 ...)" (ARXYHDGVLXXDCXXXKXDCAWHLGELVWCT; not fully specified; D-residues; cyclised or stapled)
IC50 (Daudi cells [1]; ternary binding assay, Daudi cells, human IgG1k PE): > 3000 nM
EC50 (Daudi cells [2]; KILR ADCC killing assay, Daudi cells with purified NK cells): > 3000 nM
% dead cells, KILR ADCC killing assay (Daudi cells [2]; compound 1 nM): 10.4% and 10.9%
% dead cells, KILR ADCC killing assay (Daudi cells [2]; compound 3 nM): 10.2% and 10.7%
% dead cells, KILR ADCC killing assay (Daudi cells [2]; compound 30 nM): 10.6% and 11.6%
% dead cells, KILR ADCC killing assay (Daudi cells [2]; compound 100 nM): 10.9%
% dead cells, KILR ADCC killing assay (Daudi cells [2]; compound 300 nM): 10.9% and 11.1%
% dead cells, KILR ADCC killing assay (Daudi cells [2]; compound 1000 nM): 11.4% and 11.7%
% dead cells, KILR ADCC killing assay (Daudi cells [2]; compound 3000 nM): 10.3% and 10.8%

B1: A R Ahp Y H D G V L Bph Ahp A C (peptide)
peptide: AR[Ahp(2)]YHDGVL[Bip][Ahp(2)]AC
modifications: not fully specified (N-terminus, bridges); printed as A R Ahp Y H D G V L Bph Ahp A C
notes: Alanine variant at position 12
Binding Assay (ELISA signal) (CD38 [4]): 1.79

B2: A R Ahp Y H D G A L Bph Ahp D C (peptide)
peptide: AR[Ahp(2)]YHDGAL[Bip][Ahp(2)]DC
modifications: not fully specified (N-terminus, bridges); printed as A R Ahp Y H D G A L Bph Ahp D C
notes: Alanine variant at position 8
Binding Assay (ELISA signal) (CD38 [4]): 0.3

B3: A R Ahp Y H D A V L Bph Ahp D C (peptide)
peptide: AR[Ahp(2)]YHDAVL[Bip][Ahp(2)]DC
modifications: not fully specified (N-terminus, bridges); printed as A R Ahp Y H D A V L Bph Ahp D C
notes: Alanine variant at position 7
Binding Assay (ELISA signal) (CD38 [4]): 1.49

B4: A R Ahp Y H D G V A Bph Ahp D C (peptide)
peptide: AR[Ahp(2)]YHDGVA[Bip][Ahp(2)]DC
modifications: not fully specified (N-terminus, bridges); printed as A R Ahp Y H D G V A Bph Ahp D C
notes: Alanine variant at position 9
Binding Assay (ELISA signal) (CD38 [4]): 0.08

B5: A R Ahp Y A D G V L Bph Ahp D C (peptide)
peptide: AR[Ahp(2)]YADGVL[Bip][Ahp(2)]DC
modifications: not fully specified (N-terminus, bridges); printed as A R Ahp Y A D G V L Bph Ahp D C
notes: Alanine variant at position 5
Binding Assay (ELISA signal) (CD38 [4]): 0.28

B6: A R Ahp Y H A G V L Bph Ahp D C (peptide)
peptide: AR[Ahp(2)]YHAGVL[Bip][Ahp(2)]DC
modifications: not fully specified (N-terminus, bridges); printed as A R Ahp Y H A G V L Bph Ahp D C
notes: Alanine variant at position 6
Binding Assay (ELISA signal) (CD38 [4]): 0.93

B7: A R A Y H D G V L Bph Ahp D C (peptide)
peptide: ARAYHDGVL[Bip][Ahp(2)]DC
modifications: not fully specified (N-terminus, bridges); printed as A R A Y H D G V L Bph Ahp D C
notes: Alanine variant at position 3
Binding Assay (ELISA signal) (CD38 [4]): 0.11

B8: A A H MeF V L P Bph V W V C (peptide)
peptide: AAH[NMeF]VLP[Bip]VWVC
modifications: not fully specified (N-terminus, bridges); printed as A A H MeF V L P Bph V W V C
Binding Assay (ELISA signal) (CD38 [5]): 0.84

B9: A L A MeF V L P Bph V W V C (peptide)
peptide: ALA[NMeF]VLP[Bip]VWVC
modifications: not fully specified (N-terminus, bridges); printed as A L A MeF V L P Bph V W V C
notes: Alanine variant at position 3
Binding Assay (ELISA signal) (CD38 [5]): 0.37

B10: A R Ahp Y H D G V L Bph A D C (peptide)
peptide: AR[Ahp(2)]YHDGVL[Bip]ADC
modifications: not fully specified (N-terminus, bridges); printed as A R Ahp Y H D G V L Bph A D C
notes: Alanine variant at position 11
Binding Assay (ELISA signal) (CD38 [4]): 0.2

B11: A R Ahp Y H D G V L A Ahp D C (peptide)
peptide: AR[Ahp(2)]YHDGVLA[Ahp(2)]DC
modifications: not fully specified (N-terminus, bridges); printed as A R Ahp Y H D G V L A Ahp D C
notes: Alanine variant at position 10
Binding Assay (ELISA signal) (CD38 [4]): 0.09

B12: A R Ahp A H D G V L Bph Ahp D C (peptide)
peptide: AR[Ahp(2)]AHDGVL[Bip][Ahp(2)]DC
modifications: not fully specified (N-terminus, bridges); printed as A R Ahp A H D G V L Bph Ahp D C
notes: Alanine variant at position 4
Binding Assay (ELISA signal) (CD38 [4]): 0.11

B13: A A Ahp Y H D G V L Bph Ahp D C (peptide)
peptide: AA[Ahp(2)]YHDGVL[Bip][Ahp(2)]DC
modifications: not fully specified (N-terminus, bridges); printed as A A Ahp Y H D G V L Bph Ahp D C
Binding Assay (ELISA signal) (CD38 [4]): 0.6

Reference: patent publication US20230028880A1, “CD38-BINDING AGENTS AND USES THEREOF” (Biohaven Therapeutics Ltd., priority 2019, published 2023)
